Patent publication US20070275977A1, “N-OXIDES OF PYRIDYLMETHYL -PIPERAZINE AND -PIPERIDINE DERIVATIVES” (priority 2006, published 2007)

Assays:
Dopamine-D1 = Dopamine-D1 (Homo sapiens, UniProt P21728); assay: In vitro receptor affinity, Dopamine-D1; type: binding; conditions: radioligand [3H]-SCH 23390, read-out: K1 (in vitro receptor affinity)
Experimental: (§1) ln vitro affinity for neurotransmitter receptors: The binding data collected below were either obtained by CE REP (128, rue Danton, 92500 Rueil-Malmaison, France) or at Solvay Pharmaceuticals B.V. (C. J. van Houtenlaan 36, 1381 CP Weesp, The Netherlands), using well documented standard procedures. The affinities for dopamine-D2 and 5-HT1A receptors for instance, were measured as described by Creese (1997) and Gozlan (1983) respectively.

Dopamine-D2 = Dopamine-D2 (Homo sapiens, UniProt P14416); assay: In vitro receptor affinity, Dopamine-D2; type: binding; conditions: radioligand [3H]-spiperone, read-out: K1 (in vitro receptor affinity)
Dopamine-D2, sequence (P14416 whole entry): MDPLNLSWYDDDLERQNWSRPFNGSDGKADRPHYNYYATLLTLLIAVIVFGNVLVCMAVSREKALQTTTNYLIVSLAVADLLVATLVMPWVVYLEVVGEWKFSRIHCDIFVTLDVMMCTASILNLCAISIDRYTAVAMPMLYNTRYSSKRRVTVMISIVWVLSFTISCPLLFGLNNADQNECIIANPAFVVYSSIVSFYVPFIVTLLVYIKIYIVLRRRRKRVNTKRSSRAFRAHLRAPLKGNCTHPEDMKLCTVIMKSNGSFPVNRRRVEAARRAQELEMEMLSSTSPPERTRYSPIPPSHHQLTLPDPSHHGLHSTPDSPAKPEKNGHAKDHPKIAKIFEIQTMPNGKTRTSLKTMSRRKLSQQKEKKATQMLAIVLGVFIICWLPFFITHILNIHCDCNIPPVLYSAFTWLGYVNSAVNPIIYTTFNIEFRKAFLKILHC
Experimental: as §1

Dopamine-D3 = Dopamine-D3 (Homo sapiens, UniProt P35462); assay: In vitro receptor affinity, Dopamine-D3; type: binding; conditions: radioligand [3H]-spiperone, read-out: K1 (in vitro receptor affinity)
Dopamine-D3, sequence (P35462 whole entry): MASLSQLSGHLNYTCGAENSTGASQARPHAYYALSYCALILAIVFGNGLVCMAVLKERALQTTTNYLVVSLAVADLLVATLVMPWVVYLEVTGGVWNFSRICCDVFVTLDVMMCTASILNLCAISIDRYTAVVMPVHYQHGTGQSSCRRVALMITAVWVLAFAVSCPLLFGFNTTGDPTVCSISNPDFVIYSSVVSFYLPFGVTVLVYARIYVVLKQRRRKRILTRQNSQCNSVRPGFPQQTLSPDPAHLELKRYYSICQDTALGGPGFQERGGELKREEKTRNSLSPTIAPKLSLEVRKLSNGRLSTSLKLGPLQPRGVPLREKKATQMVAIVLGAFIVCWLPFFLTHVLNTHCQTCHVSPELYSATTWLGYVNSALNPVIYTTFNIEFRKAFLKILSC
Experimental: as §1

Serotonin-5-HT1D = assay: In vitro receptor affinity, Serotonin-5-HT1D; type: binding; conditions: bovine, radioligand [3H]-serotonin; read-out: K1 (in vitro receptor affinity)
Experimental: as §1

Serotonin-5-HT2C = Serotonin-5-HT2C (Homo sapiens, UniProt P28335); assay: In vitro receptor affinity, Serotonin-5-HT2C; type: binding; conditions: radioligand [125I]-DOI, read-out: K1 (in vitro receptor affinity)
Serotonin-5-HT2C, sequence (P28335 33-458): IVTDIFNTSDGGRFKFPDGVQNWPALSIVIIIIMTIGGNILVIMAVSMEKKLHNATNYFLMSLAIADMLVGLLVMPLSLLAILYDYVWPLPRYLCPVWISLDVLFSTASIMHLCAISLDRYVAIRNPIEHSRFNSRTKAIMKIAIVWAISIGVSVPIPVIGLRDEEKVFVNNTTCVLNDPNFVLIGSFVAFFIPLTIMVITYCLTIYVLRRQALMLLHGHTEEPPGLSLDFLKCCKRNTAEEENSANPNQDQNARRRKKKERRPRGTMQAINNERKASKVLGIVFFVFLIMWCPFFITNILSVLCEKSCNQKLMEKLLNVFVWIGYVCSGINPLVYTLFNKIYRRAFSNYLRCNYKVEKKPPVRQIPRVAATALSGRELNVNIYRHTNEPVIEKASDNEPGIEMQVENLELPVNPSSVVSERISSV
Experimental: as §1

Serotonin-5-HT3 = Serotonin-5-HT3 (Rattus norvegicus, UniProt P35563); assay: In vitro receptor affinity, Serotonin-5-HT3; type: binding; conditions: radioligand [3H]-GR 38032F, read-out: K1 (in vitro receptor affinity)
Serotonin-5-HT3, sequence (P35563 24-483): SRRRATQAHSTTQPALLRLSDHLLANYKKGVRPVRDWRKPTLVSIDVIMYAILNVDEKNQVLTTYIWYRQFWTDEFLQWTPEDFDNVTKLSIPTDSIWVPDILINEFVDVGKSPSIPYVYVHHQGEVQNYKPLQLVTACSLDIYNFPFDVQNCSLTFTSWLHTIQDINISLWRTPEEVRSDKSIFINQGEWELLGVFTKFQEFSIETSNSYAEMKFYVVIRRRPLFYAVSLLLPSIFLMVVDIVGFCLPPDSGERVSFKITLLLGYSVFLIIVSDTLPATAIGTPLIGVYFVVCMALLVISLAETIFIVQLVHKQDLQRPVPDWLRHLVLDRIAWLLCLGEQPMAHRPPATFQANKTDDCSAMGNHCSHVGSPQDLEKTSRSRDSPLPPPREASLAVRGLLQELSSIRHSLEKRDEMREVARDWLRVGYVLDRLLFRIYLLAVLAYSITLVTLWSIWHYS
Experimental: as §1

5-HT reuptake = 5-HT reuptake (Homo sapiens, UniProt P31645); assay: In vitro receptor affinity, 5-HT reuptake; type: binding; conditions: radioligand [3H]-paroxetine, read-out: K1 (in vitro receptor affinity)
5-HT reuptake, sequence (P31645 whole entry): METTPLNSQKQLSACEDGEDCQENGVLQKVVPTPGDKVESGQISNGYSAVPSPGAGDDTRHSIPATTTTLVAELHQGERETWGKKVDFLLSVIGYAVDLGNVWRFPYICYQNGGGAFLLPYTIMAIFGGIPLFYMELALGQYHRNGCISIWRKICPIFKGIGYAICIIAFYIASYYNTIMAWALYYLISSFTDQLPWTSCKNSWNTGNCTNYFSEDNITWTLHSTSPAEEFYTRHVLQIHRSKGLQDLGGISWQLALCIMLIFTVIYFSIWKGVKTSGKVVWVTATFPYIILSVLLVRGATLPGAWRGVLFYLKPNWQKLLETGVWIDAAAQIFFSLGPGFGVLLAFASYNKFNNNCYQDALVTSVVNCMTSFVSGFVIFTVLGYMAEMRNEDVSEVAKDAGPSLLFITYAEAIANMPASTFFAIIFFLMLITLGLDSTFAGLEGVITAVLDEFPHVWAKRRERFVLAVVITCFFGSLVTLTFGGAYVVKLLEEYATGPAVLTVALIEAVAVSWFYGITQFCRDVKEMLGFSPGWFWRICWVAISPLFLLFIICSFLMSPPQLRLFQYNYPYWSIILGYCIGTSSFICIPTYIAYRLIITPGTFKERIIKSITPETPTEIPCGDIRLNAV
Experimental: as §1

α1-adrenergic = assay: In vitro receptor affinity, α1-adrenergic; type: binding; conditions: rat, radioligand [3H]-prazosin; read-out: K1 (in vitro receptor affinity)
Experimental: as §1

[1] = system: neurotransmitter receptors; assay: Pharmacological profile in vitro (overall statement)
Experimental: as §1
In vitro (ant)agonistic activity at human D2 receptors and 5-HT1A receptors was measured according to the methods described by Solomon (1974) and Weiss (1985) respectively, on the formation of adenylate cyclase in CHO cell-lines expressing these cloned receptors.

[2] = Pharmacological profile in vivo (overall statement); conditions: in vivo
Experimental: Lower lip retraction, an in vivo animal model for serotonin 5-HT1A receptor agonistic activity, was measured according to the method described by Berendsen (1989); Apomorphine-induced climbing behaviour in mice, an in vivo animal model for dopamine-D2 receptor antagonistic activity, was determined according to the method described by Costall (1978).

[3] = Plasma concentrations in mice after i.v. or p.o. administration, blood analyzed by LC-MS; type: in vivo; conditions: i.v. or p.o.
Experimental: The LC-MS system consists of 2 Perkin elmer series 200 micro pumps. The pumps were connected to each other by a 50 pI tee mixer, and connected to a Gilson 215 auto sampler. The method was as follows:
The auto sampler was connected to a Waters Atlantis C18 30*4.6 mm column with 3 μm particles. The column was thermo stated in a Perkin Elmer series 200 column oven at 40° C. The column was connected to a Perkin Elmer series 200 UV meter with a 2.7 μl flowcel. The wavelength was set to 254 nm. The UV meter was connected to a Sciex API 150EX mass spectrometer. The mass spectrometer had the following parameters: Scanrange:150-900 a.m.u., polarity: positive; scan mode: profile; resolution Q1: UNIT; step size: 0.10 a.m.u.; time per scan: 0.500 sec; NEB: 10; CUR: 10; IS: 5200; TEM: 325; DF: 30; FP: 225 and EP: 10. The light scattering detector was connected to the Sciex API 150. The light scattering detector was a Sedere Sedex 55 operating at 50° C. and 3 bar N2. The complete system was controlled by a G3 powermac.
For oral (p.o.) administration: to the desired quantity (0.5-5 mg) of the solid test compound in a glass tube, some glass beads were added and the solid was milled by vortexing for 2 minutes. After addition of 1 ml of a solution of 1% methylcellulose in water and 2% (v/v) of Poloxamer 188 (Lutrol F68), the compound was suspended by vortexing for 10 minutes. The pH was adjusted to 7. […]

[4] = Metabolism studies in humans; type: in vivo; conditions: in man (also not in any animal species used in toxicology studies)
Description: (§2) Psychotropic pyridylmethyl -piperazine and -piperidine derivatives are disclosed in EP 0 908 458. […] By now it is very well known that N-oxides are metabolites of many tertiary amines, and in most cases are also intermediates between tertiary amines and their N-dealkylated analogs. Most, but not all, tertiary amine drugs give rise to N-oxides. For instance, this is the case with morphine, imipramine, promazine, cinnarizine and nicotine, to name just a few. How much N-oxidation takes place varies from trace amounts to a near quantitative conversion. […] The most famous example of these is chlordiazepoxide (Librium®), one of the most frequently used drugs in psychiatric and general medicine. […] Some N-oxides undergo nearly quantitative reductive conversion to the corresponding tertiary amines and in other cases the conversion is a mere trace reaction or even completely absent (Bickel, 1969). Thus, the formation of N-oxides and their corresponding tertiary amines is unpredictable. […] When they are, the reaction can be a mere trace or nearly quantitative.

[5] = Toxicological studies, plasma of rats; type: in vivo; conditions: rats dosed with SLV313
Description: as §2

[6] = Toxicological studies, plasma of dogs; type: in vivo; conditions: dogs dosed with SLV313
Description: as §2

Dopamine-D1, sequence (P21728 whole entry): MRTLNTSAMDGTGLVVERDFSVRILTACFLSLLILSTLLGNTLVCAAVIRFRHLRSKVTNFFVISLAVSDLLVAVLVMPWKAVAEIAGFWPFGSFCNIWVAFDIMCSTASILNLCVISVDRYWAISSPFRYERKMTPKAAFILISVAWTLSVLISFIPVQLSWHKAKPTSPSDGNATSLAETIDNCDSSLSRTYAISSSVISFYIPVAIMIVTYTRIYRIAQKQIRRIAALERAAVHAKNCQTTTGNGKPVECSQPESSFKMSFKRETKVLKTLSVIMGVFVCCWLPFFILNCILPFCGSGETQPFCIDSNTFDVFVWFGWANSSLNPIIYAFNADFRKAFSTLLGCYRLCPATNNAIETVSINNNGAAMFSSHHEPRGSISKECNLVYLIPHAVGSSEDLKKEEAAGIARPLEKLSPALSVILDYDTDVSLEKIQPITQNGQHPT

[O-][n+]1cc(CN2CCN(c3cccc4c3OCCO4)CC2)cc(-c2ccc(F)cc2)c1 [pyridine N-oxide, 1-(2,3-dihydro-1,4-benzodioxin-5-yl)-4-[[5-(4-fluorophenyl)-1-oxido-3-pyridinyl]methyl]-piperazine]
Ki (Dopamine-D1): > 10 µM | Ki (Dopamine-D2): 0.005 µM | Ki (Dopamine-D3): 0.008 µM | Ki (Serotonin-5-HT1D): 4 µM | Ki (Serotonin-5-HT2C): > 10 µM | Ki (Serotonin-5-HT3): > 10 µM | Ki (5-HT reuptake): 0.32 µM | Ki (α1-adrenergic): 1 µM | pharmacological profile/activity in vitro relative to parent SLV313 [1]: identical | pharmacological profile/potency in vivo relative to SLV313 [2]: identical | melting point: 171 °C

Fc1ccc(-c2cncc(CN3CCN(c4cccc5c4OCCO5)CC3)c2)cc1 [SLV313, 3-[[4-(2,3-dihydro-1,4-benzodioxin-5-yl)-1-piperazinyl]methyl]-5-(4-fluorophenyl)pyridine, reference compound]
Ki (Dopamine-D1): > 10 µM | Ki (Serotonin-5-HT1D): 13 µM | Ki (Serotonin-5-HT2C): > 1 µM | Ki (Serotonin-5-HT3): > 1 µM | Ki (5-HT reuptake): > 1 µM | Ki (α1-adrenergic): 0.5 µM | metabolism to piperazine-N-oxide [3]: not metabolized to its piperazine-N-oxide | piperazine-N-oxide as a metabolite [4]: has not been detected as a metabolite | pyridine-N-oxide in plasma [5]: could not be demonstrated | pyridine-N-oxide in plasma [6]: could not be demonstrated
